Results: patent publication US20230357179A1, “RAF KINASE INHIBITORS AND METHODS OF USE THEREOF” (Deciphera Pharmaceuticals, LLC, priority 2021, published 2023)

Experiments:
A-Raf kinase = biological target: T1, A-Raf kinase (Homo sapiens, UniProt P10398, Y301D/Y302D); test: Biochemical assay for A-Raf.1 (coupled pyruvate kinase/lactate dehydrogenase); details: read-out: ARAF.1 IC50
T1 construct: purchased Sigma
Method: Biochemical assay for A-Raf.1
(§1) Activity of A-Raf kinase (SEQ. ID NO. 1) was determined spectroscopically using a coupled pyruvate kinase/lactate dehydrogenase assay that continuously monitors the ATP hydrolysis-dependent oxidation of NADH (e.g., Schindler et al., Science, 2000, 289, 1938-1942). Assays were conducted in 384-well plates (100 μL final volume) using 5.55 nM A-Raf (Sigma), 1.5 units pyruvate kinase, 2.1 units lactate dehydrogenase, 1 mM phosphoenol pyruvate, 0.28 mM NADH, 30.1 nM MEK (SignalChem), and 1 mM ATP in assay buffer (100 mM Tris, pH 7.5, 15 mM MgCl2, 0.5 mM DTT, 0.1% octyl-glucoside, 0.002% (w/v) BSA, and 0.002% Triton X-100). Inhibition of A-Raf was measured by adding serial diluted test compound (final assay concentration of 1% DMSO). A decrease in absorption at 340 nm was monitored continuously for 6 h at 30° C. on a multi-mode microplate reader (BioTek). The reaction rate was calculated using the 4 to 5 h time frame. The reaction rate at each concentration of compound was converted to percent inhibition using controls (i.e., reaction with no test compound and reaction with a known inhibitor) and IC50 values were calculated by fitting a four-parameter sigmoidal curve to the data using Prism (GraphPad software).

B-Raf kinase = biological target: T2, B-Raf kinase (Homo sapiens, UniProt P15056); test: Biochemical assay for B-Raf.1 (coupled pyruvate kinase/lactate dehydrogenase); details: read-out: BRAF.1 IC50
T2 construct: GST (N); purchased Sigma
Method: Biochemical Assay for B-Raf.1
as §1, with “B-Raf” for “A-Raf”, “NO: 2)” for “NO. 1)”, “0.13” for “5.55”

C-Raf kinase = biological target: T3, C-Raf kinase (Homo sapiens, UniProt P04049, Y340D/Y341D); test: Biochemical assay for C-Raf.1 (coupled pyruvate kinase/lactate dehydrogenase); details: read-out: CRAF.1 IC50
T3 construct: Y340D,; GST (N); purchased Sigma
Method: Biochemical Assay for C-Raf.1
as §1, with “C-Raf” for “A-Raf”, “NO: 3)” for “NO. 1)”, “0.43” for “5.55”

B-Raf (V600E) kinase = biological target: T4, B-Raf (V600E) kinase (Homo sapiens, UniProt P15056, V600E); test: Biochemical assay for B-Raf (V600E).1 (coupled pyruvate kinase/lactate dehydrogenase); details: read-out: BRAF V600E.1 IC50
T4 construct: B-Raf (V600E) residues 416-766 with a; GST (N); purchased SignalChem
Method: Biochemical Assay for B-Raf (V600E).1
Activity of B-Raf (V600E) (SEQ. ID NO: 4) kinase was determined spectroscopically using a coupled pyruvate kinase/lactate dehydrogenase assay that continuously monitors the ATP hydrolysis-dependent oxidation of NADH (e.g., Schindler et al., Science, 2000, 289, 1938-1942). Assays were conducted in 384-well plates (100 μL final volume) using 0.03 nM B-Raf (SignalChem), 1.5 units pyruvate kinase, 2.1 units lactate dehydrogenase, 1 mM phosphoenol pyruvate, 0.28 mM NADH, 30.1 nM MEK (SignalChem), and 1 mM ATP in assay buffer (100 mM Tris, pH 7.5, 15 mM MgCl2, 0.5 mM DTT, 0.1% octyl-glucoside, 0.002% (w/v) BSA, and 0.002% Triton X-100). Inhibition of B-Raf (V600E) was measured by adding serial diluted test compound (final assay concentration of 1% DMSO). A decrease in absorption at 340 nm was monitored continuously for 6 h at 30° C. on a multi-mode microplate reader (BioTek). The reaction rate was calculated using the 3 to 4 h time frame. The reaction rate at each concentration of compound was converted to percent inhibition using controls (i.e., reaction with no test compound and reaction with a known inhibitor) and IC50 values were calculated by fitting a four-parameter sigmoidal curve to the data using Prism (GraphPad software).

Miapaca-2 cells = test: MiaPaca-2 cell proliferation assay (1), resazurin, 96-well; type: cell-based; details: Homo sapiens, MIA PaCa-2, inhibition of cell proliferation
Method: MiaPaca-2 Cell Proliferation Assay (1)
Miapaca-2 cells (catalog #CRL-1420) are obtained from the American Type Culture Collect (ATTC, Manassas, VA). Briefly, cells were grown in DMEM supplemented with 10% characterized fetal bovine serum (Invitrogen, Carlsbad, CA), 2.5% New Zealand sourced horse serum and 1% Penicillin/Streptomycin/L-Glutamine at 37° C., 5% CO2, and 95% humidity. Cells are expanded until reaching 70-95% confluency at which point they are subcultured or harvested for assay use. A serial dilution of test compound is dispensed into a 96-well black clear bottom plate in triplicate. Three thousand cells are added per well in 200 μL complete growth medium in the 96-well plate. Plates are incubated for 67-72 hours at 37° C., 5% CO2, and 95% humidity. At the end of the incubation, 40 μL of a 440 μM solution of resazurin (Sigma, St. Louis, MO) in PBS is added to each well of the plate and plates are incubated for an additional 5-6 hours at 37° C., 5% CO2, and 95% humidity. Plates are read on a Synergy2 or equivalent reader (Biotek, Winooski VT) using an excitation of 540 nm and an emission of 600 nm. Data is analyzed using Prism software (GraphPad, San Diego, CA) to calculate IC50 values.

A375 cells = test: A375 cell proliferation assay (1), resazurin, 96-well; type: cell-based; details: Homo sapiens, A-375, inhibition of cell proliferation
Method: A375 Cell Proliferation Assay (1)
A375 cells (catalog (#CRL-1619) are obtained from the American Type Culture Collect (ATTC, Manassas, VA). Briefly, cells were grown in DMEM High Glucose supplemented with 10% characterized fetal bovine serum (Invitrogen, Carlsbad, CA) and 1% Penicillin/Streptomycin/L-Glutamine at 37° C., 5% CO2, and 95% humidity. Cells are expanded until reaching 70-95% confluency at which point they are sub-cultured or harvested for assay use. A serial dilution of test compound is dispensed into a 96-well black clear bottom plate in triplicate. Two thousand five hundred cells are added per well in 200 μL complete growth medium in the 96-well plate. Plates are incubated for 67-72 hours at 37° C., 5% CO2, and 95% humidity. At the end of the incubation, 40 μL of a 440 μM solution of resazurin (Sigma, St. Louis, MO) in PBS is added to each well of the plate and plates are incubated for an additional 5-6 hours at 37° C., 5% CO2, and 95% humidity. Plates are read on a Synergy2 or equivalent reader (Biotek, Winooski VT) using an excitation of 540 nm and an emission of 600 nm. Data is analyzed using Prism software (GraphPad, San Diego, CA) to calculate IC50 values.

T1 sequence (P10398 with tags, fused parts or gaps Y301D/Y302D): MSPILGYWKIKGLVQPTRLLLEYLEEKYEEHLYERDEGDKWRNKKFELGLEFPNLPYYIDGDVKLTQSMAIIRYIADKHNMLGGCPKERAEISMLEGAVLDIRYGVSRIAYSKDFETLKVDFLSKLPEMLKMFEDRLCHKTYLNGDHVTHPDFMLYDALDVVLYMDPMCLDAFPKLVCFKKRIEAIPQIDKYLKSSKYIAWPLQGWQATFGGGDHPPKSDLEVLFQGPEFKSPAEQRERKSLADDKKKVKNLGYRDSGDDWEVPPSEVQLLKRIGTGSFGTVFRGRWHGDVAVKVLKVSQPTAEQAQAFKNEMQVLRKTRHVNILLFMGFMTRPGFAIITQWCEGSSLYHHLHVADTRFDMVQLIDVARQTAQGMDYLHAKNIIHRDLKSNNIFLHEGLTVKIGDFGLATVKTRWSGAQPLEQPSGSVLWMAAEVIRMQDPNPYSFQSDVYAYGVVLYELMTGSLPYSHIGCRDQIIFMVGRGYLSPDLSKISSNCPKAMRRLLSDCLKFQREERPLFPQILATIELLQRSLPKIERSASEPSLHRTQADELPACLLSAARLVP
T4 sequence (P15056 416-766 V600E): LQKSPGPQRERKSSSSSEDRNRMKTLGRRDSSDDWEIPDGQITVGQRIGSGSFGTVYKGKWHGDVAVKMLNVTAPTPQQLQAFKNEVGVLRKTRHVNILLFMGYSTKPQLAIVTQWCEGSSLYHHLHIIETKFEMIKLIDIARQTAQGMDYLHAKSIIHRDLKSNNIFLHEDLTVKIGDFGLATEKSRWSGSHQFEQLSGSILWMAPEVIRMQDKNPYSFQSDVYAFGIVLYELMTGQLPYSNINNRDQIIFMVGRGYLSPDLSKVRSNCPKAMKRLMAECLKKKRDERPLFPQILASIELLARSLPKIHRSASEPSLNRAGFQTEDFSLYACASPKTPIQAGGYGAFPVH
T2 sequence (P15056 416-766): as the sequence (P15056 416-766 V600E) above, with E185V counted along it
T3 sequence (P04049 307-648 Y340D/Y341D): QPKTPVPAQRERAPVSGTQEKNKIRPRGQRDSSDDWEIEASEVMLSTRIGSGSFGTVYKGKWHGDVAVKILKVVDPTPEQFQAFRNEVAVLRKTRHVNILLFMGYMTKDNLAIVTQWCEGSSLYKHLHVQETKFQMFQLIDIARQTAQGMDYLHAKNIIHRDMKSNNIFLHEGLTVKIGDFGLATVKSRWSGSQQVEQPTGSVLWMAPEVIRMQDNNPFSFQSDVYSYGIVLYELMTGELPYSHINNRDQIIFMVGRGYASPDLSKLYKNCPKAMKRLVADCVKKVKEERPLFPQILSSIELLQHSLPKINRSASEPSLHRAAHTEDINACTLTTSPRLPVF

Row | IC50 (A-Raf kinase) | IC50 (B-Raf kinase) | IC50 (C-Raf kinase) | IC50 (B-Raf (V600E) kinase) | IC50 (Miapaca-2 cells) | IC50 (A375 cells) | SMILES
1 | > 1 µM | 0.1 to 0.5 µM | ≤ 0.1 µM | ≤ 0.1 µM |  | 1 to 10 µM | CCNC(=O)Nc1cc(-c2cc(OCCO)nc(-c3ccnc(NC(=O)C4CC4)c3)c2)c(C)cc1F [Example 98]
2 | 0.1 to 0.5 µM | ≤ 0.1 µM | ≤ 0.1 µM | ≤ 0.1 µM |  | 1 to 10 µM | COC1(CCNC(=O)Nc2cc(-c3ccnc(-c4ccnc(NC(=O)C5CC5)c4)c3)c(C)cc2F)CC1 [Example 116]
3 | > 1 µM | > 1 µM | > 1 µM | > 1 µM |  | 1 to 10 µM | COC(=O)Nc1cc(-c2cc(-c3cc(NC(=O)NCCC4CN(C)C4)cnc3C)cc(OCCO)n2)ccn1 [Example 183]

The remaining lines, values behind:

Row | SMILES | IC50 (A-Raf kinase) | IC50 (B-Raf kinase) | IC50 (C-Raf kinase) | IC50 (B-Raf (V600E) kinase) | IC50 (Miapaca-2 cells) | IC50 (A375 cells)
4 | Cc1ccc(NC(=O)Nc2cnn(C(C)(C)C)c2)cc1-c1cc(OCCO)nc(N2CCOCC2)c1 [Example 44] | > 1 µM | 0.1 to 0.5 µM | 0.1 to 0.5 µM | ≤ 0.1 µM | 1 to 10 µM | 
5 | Cc1ccc(NC(=O)Nc2cnn(CC(F)(F)F)c2)cc1-c1cc(OCCO)nc(N2CCOCC2)c1 [Example 45] | > 1 µM | > 1 µM | 0.1 to 0.5 µM | ≤ 0.1 µM | 1 to 10 µM | 
6 | CC(=O)Nc1cc(-c2cc(-c3cc(NC(=O)NCCC(C)(C)C(F)(F)F)c(F)cc3C)cc(C3CC3)n2)ccn1 [Example 56] | > 1 µM | ≤ 0.1 µM | ≤ 0.1 µM | ≤ 0.1 µM |  | 0.5 to 1 µM
7 | Cc1cc(F)c(NC(=O)NC[C@H]2CCO2)cc1-c1cc(OCCO)nc(-c2ccnc3[nH]ncc23)c1 [Example 93] | > 1 µM | > 1 µM | > 1 µM | > 1 µM |  | 1 to 10 µM
8 | Cc1cc(F)c(NC(=O)N2CCC(C)(C#N)C2)cc1-c1cc(OCCO)nc(-c2ccnc3[nH]ncc23)c1 (stereo not shown) [Example 95] | > 1 µM | 0.5 to 1 µM | 0.5 to 1 µM | ≤ 0.1 µM |  | 1 to 10 µM
